Source: paper PMC6522524 (Nature Communications, 2019)
Several values for one entry are separate records, joined by “and”; a condition that tells them apart may be missing. Identical values can stand only once. Like-named read-outs stand apart in the source and are kept apart here.

How the values were obtained:
[1] = test system: BALB/c male mice; conditions: mouse, in vivo, po
Protocol: Five mice were included in each group. Mortality was monitored daily, and bodyweight was measured every other day. On day 28, blood was taken from the orbital sinus, and white blood cells, red blood cells and platelets were counted. Blood urea nitrogen, creatinine, glucose, total bilirubin, total cholesterol, triglyceride, albumin, total protein, aspartate aminotransferase, alanine aminotransferase (ALT), sodium, potassium, and chloride were measured. Urinalysis was performed including urobilinogen, glucose, bilirubin, ketone, specific gravity, blood, pH, protein, nitrate, and leukocytes.
Supplementary Table 3. Mean numbers of blood cells, and parameters for kidney and liver
Data are expressed as means ± standard deviations.
Abbreviations: WBC, white blood cell, AST, aspartate transaminase; ALT, alanine transaminase; ALP,
alkaline phosphatase; BUN, blood urea nitrogen; Na, sodium; K, potassium; Cl. Chloride; S.G, specific

[2] = test system: total HBV core protein in Huh-7 cells; type: cell-based, Hepatitis B virus
Protocol: the indicated times. The cells were lysed and assembled HBV core particles were isolated by sucrose step-gradient ultracentrifugation, resolved on 1 % agarose gels, and subjected to immunoblot analysis with anti-HBV core antibody. Total intracellular HBV core protein was also determined by immunoblot analysis in the cell lysates. Core mRNA levels were measured by quantitative RT-PCR. The data

[3] = molecular target: T1, Cp149 (truncated HBV core protein) (Hepatitis B virus genotype D subtype ayw, UniProt P03146); test: Electron microscopy of HBV capsid assembly in vitro; type: biochemical
T1 construct: Cp149 (amino acids 1–149) is a truncated form of the HBV core protein; made in house; host or cells: Escherichia coli
T1 sequence (P03146 1-149): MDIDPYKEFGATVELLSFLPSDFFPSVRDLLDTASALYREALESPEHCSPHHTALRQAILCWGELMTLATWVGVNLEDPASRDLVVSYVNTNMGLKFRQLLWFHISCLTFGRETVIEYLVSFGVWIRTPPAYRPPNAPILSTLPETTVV
Protocol: The particles were negatively stained with 2% uranyl acetate. Scale bars = 200 nm and 100 nm. TEM magnifications, ×49,000 and ×75,000.
Five microliters of the solution containing the assembled HBV core particles was negatively stained by incubation on a carbon-coated grid for 1 min, followed by washing with water and staining with 2% uranyl acetate for 1 min. The grids were examined with a Tecnai G2 F30 S-TWIN transmission electron microscope.

[4] = test system: HBV cccDNA in Huh-7-NTCP cells; test: In vitro HBV infection model, Huh-7-NTCP cells: intracellular cccDNA
Protocol: (§1) HepG2 and Huh-7 cells permanently expressing NTCP were generated by infecting them with an NTCP-encoding recombinant retrovirus and isolating GFP-expressing cells.
(§2) The isolated intracellular HBV DNA was subjected to PCR with an HBV DNA primer and probe set (Supplementary Table 1). cccDNA was isolated by the Hirt extraction method[54]. Briefly, the cells were lysed in SDS lysis buffer (50 mM Tris-HCl, pH 8.0, 10 mM EDTA, 150 mM NaCl, 1% SDS), and the lysates were mixed with KCl to a final concentration of 0.5 M. After incubation at 4 °C for 30 min, each lysate was centrifuged and the supernatant was extracted three times with phenol and once with chloroform. The DNA was then recovered by ethanol precipitation, and treated with T5 nuclease (10 U per μg for 0.5 h, M0363, New England Biolabs), and the enzyme was subsequently heat-denatured at 70 °C. The isolated cccDNA was subjected to PCR with a cccDNA primer and probe set (Supplementary Table 1).
(§3) HepG2-NTCP and Huh-7-NTCP cells were cultured in 12-well plates with the indicated compound(s) for 4 h, after which the cells were infected with HBV particles (10^7 viral genome equivalent per mL, genotype D) and treated with the indicated compound(s) for another 16 h. […]
(§4) Quantitative PCR with an HBV DNA primer and probe set was used to measure intracellular
(§5) cccDNA. The data are expressed as means ± SDs. […]

[5] = test system: HBV cccDNA in HepG2-NTCP cells; test: In vitro HBV infection model, HepG2-NTCP cells: intracellular cccDNA
Protocol: as §1, §2, §3, §4, §5

[6] = molecular target: T1, Cp149 (truncated HBV core protein); test: biochemical
[7] = test system: HBV rcDNA in HepG2-NTCP cells; test: In vitro HBV infection model, HepG2-NTCP cells: intracellular HBV rcDNA
Protocol: To isolate the secreted HBV DNA, culture media were collected and centrifuged at 15,000 × g to remove debris. The medium was diluted 1:1 with phosphate-buffered saline (PBS), and 1 M NaOH solution was added to a final concentration of 0.1 M. The mixture was incubated at 37 °C for 1 h. Protein was denatured by adding 2 M Tris-HCl (pH 7.5) solution to a final concentration of 0.2 M and incubating the mixture at 98 °C for 5 min. The protein precipitate was removed by centrifugation at 15,000 × g, and the supernatant was subjected to PCR with an HBV DNA primer and probe set (Supplementary Table 1). […] To isolate intracellular HBV DNA, the cells were lysed on ice with lysis buffer (50 mM Tris-HCl, pH 7.5, 1 mM EDTA, 1% NP40) for 10 min. After removing cell debris and nuclei by centrifugation at 15,000 × g, the supernatant was treated with micrococcal nuclease (0.25 U per μL, M0247, New England Biolabs) at 37 °C for 1 h. The micrococcal nuclease was then inactivated by adding EGTA to a final concentration of 10 mM. Thereafter intracellular HBV DNA was extracted with a G-spin^TM total kit (17046, Intron). The isolated intracellular HBV DNA was subjected to PCR with an HBV DNA primer and probe set (Supplementary Table 1). cccDNA was isolated by the Hirt extraction method[54]. […]

[8] = in vitro; type: cell-based, human; conditions: human, Cell viability(%)
Protocol: Supplementary Fig. 11. Effect of FBS serum iron level on Huh-7, HepG2, and HepG2.2.15 cell
a Cells were maintained in medium supplemented with 2% FBS or 10% FBS for 1 day and treated with
After 6 days, cytotoxicity was measured. b Cells were treated with
the ± SD. *p < 0.05 by unpaired two-tailed Student’s t-test.

[9] = test system: HepG2 cells transfected with pHBV1.2×; conditions: 0.1–10 μM, 6 days
[10] = test system: HBsAg in HepG2.2.15 cells; test: Secreted HBsAg ELISA, HepG2.2.15 cells; type: cell-based, Hepatitis B virus
Protocol: Secreted HBsAg (f, i respectively) was quantified by ELISA.
An HBsAg ELISA kit (KA0286, Abnova) was used to quantify HBsAg protein. Briefly, culture media were incubated in individual wells of the capture plates for 2 h. After washing, horseradish peroxidase-labeled rabbit anti-HBV surface antibody was added, followed by incubation for an additional 2 h. The substrate solution was added for 15–60 min and absorbance at 450 nm was measured.

[11] = test system: HepG2.2.15 cells; conditions: 0.1–10 μM, 6 days
[12] = test system: HBV (pHBV1.2× adr) in transfected HepG2 cells; test: microbe, parasite or virus in culture; type: cell-based, Hepatitis B virus; conditions: Hepatitis B virus, HepG2, 144 h; HBV1.2× adr transfected cells, 6 days; read-out: IC50, HBV DNA secretion
[13] = test system: HBV transcripts in HepG2 cells transfected with pHBV1.2×; test: HBV transcription in HepG2 cells transfected with pHBV1.2×, quantitative RT-PCR; type: cell-based, Hepatitis B virus
Protocol: Quantitative RT-PCR with primers that detect three HBV regions (R1, R2, and R3, Supplementary Table 1) was used to measure HBV transcription. This RT-PCR detects pgRNA and precore RNA (3.5 kB), two HBV surface-encoding RNAs (2.5 kB and 2.1 kB), and HBx-encoding RNA (0.7 kB)[55]. PCR conditions were 95 °C for 10 min initially, then 50 cycles of 95 °C for 30 s, 60 °C for 60 s and 72 °C for 30 s, and finally 1 cycle of 95 °C for 60 s, 55 °C for 30 s and 95 °C for 30 s. […]
a Schematic depiction of the R1, R2, and R3 regions of the HBV genome that were targeted by quantitative RT-PCR to quantitate the transcription of pgRNA, two HBV surface RNAs, and HBx RNA. […]
c Region 3 transcription in ciclopirox-treated (b) HepG2.2.15 cells and (c) HepG2 cells transfected with the pHBV1.2× plasmid. d The promoter analysis of ciclopirox-treated HepG2 cells transfected with pGL3/HBV pgRNA promoter or pGL3/HBV sRNA promoter. The data shown in (b – d) represent two

[14] = test system: HBV replicative plasmid pAAV-HBV1.2× in C57BL/6 mice; test: Hydrodynamic injection mouse model (pAAV-HBV1.2×, C57BL/6 mice); type: in vivo
[15] = 5 mg per kg oral daily, by day 5

For `Cc1cc(C2CCCCC2)n(O)c(=O)c1` [Ciclopirox, 6-cyclohexyl-1-hydroxy-4-methyl-2(1 H)-pyridone], the Cl ([1]; 1 mg/kg/day) was 100.0 ± 1.0 mmol/L, the Cl ([1]; 5 mg/kg/day) was 99.0 ± 1.0 mmol/L and the “Total denatured HBV core protein” value ([2]; 36 h) was “not affected”. The total core protein ([2]; treatment time increased) was “decreased”, the “HBV capsid morphology (EM)” value [3] was “HBV capsid morphology was altered” and the “cccDNA levels” value [4] was “dropped markedly”. The “cccDNA levels” value [5] was “dropped markedly”, the IC50 [6] was 0.445 ± 0.017 µM and the “intracellular relaxed circular DNA levels” value [7] was “dropped markedly”. For the same compound, the viability at 0.1 µM ([8]; AVERAGE) was 100%, the viability at 0.2 µM ([8]; AVERAGE) was 100% and the viability at 0.5 µM ([8]; AVERAGE) was 99.6%. The viability at 1 µM ([8]; AVERAGE) was 99.1%, the viability at 2 µM ([8]; AVERAGE) was 97.4% and the viability at 5 µM ([8]; AVERAGE) was 95.2%. The viability at 10 µM ([8]; AVERAGE) was 93.6%, the viability at 0.1 µM ([8]; individual samples) was 99.9% and the viability at 0.2 µM ([8]; individual samples) was 99.6%. It also gave a viability at 0.5 µM ([8]; individual samples) of 99.4%, a viability at 1 µM ([8]; individual samples) of 98.9% and a viability at 2 µM ([8]; individual samples) of 97%. The viability at 5 µM ([8]; individual samples) was 93%, the viability at 10 µM ([8]; individual samples) was 93.5% and the “cytotoxicity” value [9] was “no significant cytotoxicity”. The “HBsAg production” value [10] was “no effect”, the “cytotoxicity” value [11] was “no significant cytotoxicity” and the IC50 [12] was 0.75 ± 0.15 µM. For the same compound, the “HBV transcripts levels” value [13] was “no effect”, the “HBV core protein levels in the liver” value [14, 15] was “reduced HBV core protein levels in the liver” and the “serum HBV DNA levels” value [14, 15] was “significantly lowered serum HBV DNA levels”. The “HBsAg, AVERAGE” value ([14]; mouse, in vivo) was 278.443 ng/mL and 288.165 ng/mL and 304.224 ng/mL and 310.116 ng/mL.
